Several values for one entry are separate records, joined by “and”; a condition that tells them apart may be missing. Identical values can stand only once.
Legend:
[1] = DPPH radicals scavenging assay; conditions: for IC50: read-out: IC50 DPPH free radicals scavenging
[2] = ABTS free radicals scavenging assay; conditions: for IC50: read-out: IC50 ABTS free radicals scavenging
AChE electric eel = AChE electric eel (Electrophorus electricus, UniProt O42275); experiment: biochemical
[3] = target: BChE (lyophilized equine serum) (Equus caballus, UniProt P81908); experiment: Butyrylcholinesterase inhibition, Ellman's assay; format: biochemical
BChE (lyophilized equine serum), sequence (P81908 whole entry): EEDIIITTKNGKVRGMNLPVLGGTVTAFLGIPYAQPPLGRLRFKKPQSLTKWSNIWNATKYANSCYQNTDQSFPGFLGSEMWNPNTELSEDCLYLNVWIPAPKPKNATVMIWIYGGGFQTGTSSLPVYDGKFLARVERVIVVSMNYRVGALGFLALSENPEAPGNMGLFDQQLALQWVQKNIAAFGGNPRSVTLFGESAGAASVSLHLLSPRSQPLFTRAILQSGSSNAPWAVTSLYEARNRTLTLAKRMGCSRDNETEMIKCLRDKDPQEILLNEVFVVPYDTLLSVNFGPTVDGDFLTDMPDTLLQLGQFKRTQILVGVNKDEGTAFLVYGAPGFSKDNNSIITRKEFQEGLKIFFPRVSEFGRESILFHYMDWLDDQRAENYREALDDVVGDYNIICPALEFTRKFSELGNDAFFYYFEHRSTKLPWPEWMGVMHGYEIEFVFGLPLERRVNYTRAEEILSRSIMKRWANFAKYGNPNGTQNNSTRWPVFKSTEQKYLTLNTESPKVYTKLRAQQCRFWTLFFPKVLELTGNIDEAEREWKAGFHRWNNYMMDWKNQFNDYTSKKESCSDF

[4] = target: α-glucosidase from Saccharomyces cerevisiae (Saccharomyces cerevisiae, UniProt P53341); experiment: α-Glucosidase inhibition, chromogenic assay; format: biochemical; conditions: for inhibition at 15.62 µg/mL / inhibition at 31.25 µg/mL / inhibition at 62.5 µg/mL / inhibition at 125 µg/mL / inhibition at 250 µg/mL / inhibition at 500 µg/mL / inhibition at 1000 µg/mL: read-out: (%) Inhibition α-glucosidase
α-glucosidase from Saccharomyces cerevisiae, sequence (P53341 whole entry): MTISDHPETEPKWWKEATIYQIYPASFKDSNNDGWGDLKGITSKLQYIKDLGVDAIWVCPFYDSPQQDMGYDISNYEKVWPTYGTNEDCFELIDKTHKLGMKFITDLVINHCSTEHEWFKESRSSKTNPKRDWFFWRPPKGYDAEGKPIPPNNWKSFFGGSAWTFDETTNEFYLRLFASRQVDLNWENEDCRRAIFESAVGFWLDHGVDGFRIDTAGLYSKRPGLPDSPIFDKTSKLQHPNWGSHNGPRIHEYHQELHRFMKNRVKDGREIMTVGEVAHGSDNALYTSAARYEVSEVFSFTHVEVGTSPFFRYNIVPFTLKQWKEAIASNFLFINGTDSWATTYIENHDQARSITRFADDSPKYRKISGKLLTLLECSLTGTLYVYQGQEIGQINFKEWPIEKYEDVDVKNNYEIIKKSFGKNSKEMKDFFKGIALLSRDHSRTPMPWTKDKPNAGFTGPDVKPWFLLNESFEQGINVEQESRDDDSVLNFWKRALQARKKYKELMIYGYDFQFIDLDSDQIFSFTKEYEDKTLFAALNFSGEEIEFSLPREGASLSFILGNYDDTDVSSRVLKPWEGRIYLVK

acetylcholinesterase = acetylcholinesterase (Electrophorus electricus, UniProt O42275); experiment: Michaelis–Menten kinetics of acetylcholinesterase inhibition; format: biochemical, electric eel; conditions: Michaelis–Menten / Lineweaver–Burk
acetylcholinesterase, sequence (O42275 24-633): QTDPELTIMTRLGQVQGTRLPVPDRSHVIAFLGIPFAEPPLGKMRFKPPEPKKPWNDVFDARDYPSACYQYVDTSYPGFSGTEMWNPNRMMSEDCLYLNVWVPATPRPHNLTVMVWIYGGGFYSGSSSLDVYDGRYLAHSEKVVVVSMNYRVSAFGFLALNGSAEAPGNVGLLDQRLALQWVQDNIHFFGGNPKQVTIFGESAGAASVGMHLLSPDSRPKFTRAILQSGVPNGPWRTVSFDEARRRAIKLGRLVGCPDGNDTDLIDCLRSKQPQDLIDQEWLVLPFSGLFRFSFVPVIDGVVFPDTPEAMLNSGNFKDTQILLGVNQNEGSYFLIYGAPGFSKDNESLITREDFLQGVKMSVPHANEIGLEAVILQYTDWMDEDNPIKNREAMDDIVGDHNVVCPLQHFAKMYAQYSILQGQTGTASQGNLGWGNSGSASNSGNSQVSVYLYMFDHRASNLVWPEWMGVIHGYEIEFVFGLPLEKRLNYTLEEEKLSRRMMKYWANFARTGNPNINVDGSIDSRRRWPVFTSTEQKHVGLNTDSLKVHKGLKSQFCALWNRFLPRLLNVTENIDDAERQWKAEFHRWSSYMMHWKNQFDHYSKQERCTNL

butyrylcholinesterase = butyrylcholinesterase (Equus caballus, UniProt P81908); experiment: Michaelis–Menten kinetics of butyrylcholinesterase inhibition; format: biochemical, equine; conditions: Michaelis–Menten / Lineweaver–Burk
butyrylcholinesterase, sequence (P81908 whole entry): as the sequence (P81908 whole entry) above

α-glucosidase = α-glucosidase (Saccharomyces cerevisiae, UniProt P53341); experiment: Michaelis–Menten kinetics of α-glucosidase inhibition; format: biochemical; conditions: Michaelis–Menten / Lineweaver–Burk
α-glucosidase, sequence (P53341 whole entry): as the sequence (P53341 whole entry) above

AChE electric eel, sequence (O42275 24-633): as the sequence (O42275 24-633) above

Question: Which results are given for `O=C1O[C@H]([C@@H](O)CO)C(O)=C1O` [Ascorbic acid (Std.), ascorbic acid, reference compound]?
Answer: (%) Inhibition DPPH ([1]; 15.62 μg/mL): 48.70 ± 0.90%; (%) Inhibition DPPH ([1]; 31.25 μg/mL): 55.23 ± 1.21%; (%) Inhibition DPPH ([1]; 62.5 μg/mL): 61.40 ± 1.85%; (%) Inhibition DPPH ([1]; 125 μg/mL): 69.66 ± 1.36%; (%) Inhibition DPPH ([1]; 250 μg/mL): 77.00 ± 1.73%; (%) Inhibition DPPH ([1]; 500 μg/mL): 83.96 ± 1.91%; (%) Inhibition DPPH ([1]; 1000 μg/mL): 89.00 ± 0.57%; IC50 [1]: 96.5 µM; (%) Inhibition ABTS ([2]; 15.62 μg/mL): 46.00±0.58%; (%) Inhibition ABTS ([2]; 31.25 μg/mL): 52.67±0.89%; (%) Inhibition ABTS ([2]; 62.5 μg/mL): 58.00±1.15%; (%) Inhibition ABTS ([2]; 125 μg/mL): 67.00±0.00%; (%) Inhibition ABTS ([2]; 250 μg/mL): 75.03±0.23%; (%) Inhibition ABTS ([2]; 500 μg/mL): 81.70±1.60%; (%) Inhibition ABTS ([2]; 1000 μg/mL): 87.73±0.78%; IC50 [2]: 85.2 µM

Question: Which results are given for `C[C@](C=O)(c1ccccc1)[C@@H]1CC(=O)N(c2ccccc2)C1=O` [Compound 2, (R)-2-((S)-2,5-dioxo-1-phenylpyrrolidin-3-yl)-2-phenylpropanal]?
Answer: IC50 (AChE electric eel): 423 µM; inhibition at 15.62 µg/mL (AChE electric eel; read-out: (%) Inhibition AChE): 21.3 ± 0.87%; inhibition at 31.25 µg/mL (AChE electric eel; read-out: (%) Inhibition AChE): 27.2 ± 0.47%; inhibition at 62.5 µg/mL (AChE electric eel; read-out: (%) Inhibition AChE): 39.1 ± 0.54%; inhibition at 125 µg/mL (AChE electric eel; read-out: (%) Inhibition AChE): 48 ± 0.3%; inhibition at 250 µg/mL (AChE electric eel; read-out: (%) Inhibition AChE): 59.9 ± 0.6%; inhibition at 500 µg/mL (AChE electric eel; read-out: (%) Inhibition AChE): 70.5 ± 0.9%; inhibition at 1000 µg/mL (AChE electric eel; read-out: (%) Inhibition AChE): 77.23 ± 0.22%; IC50 [3]: 358 µM; inhibition at 15.62 µg/mL ([3]; read-out: (%) Inhibition BChE): 23.4 ± 0.82%; inhibition at 31.25 µg/mL ([3]; read-out: (%) Inhibition BChE): 31.2 ± 0.47%; inhibition at 62.5 µg/mL ([3]; read-out: (%) Inhibition BChE): 42 ± 0.97%; inhibition at 125 µg/mL ([3]; read-out: (%) Inhibition BChE): 51.9 ± 0.45%; inhibition at 250 µg/mL ([3]; read-out: (%) Inhibition BChE): 62.12 ± 0.54%; inhibition at 500 µg/mL ([3]; read-out: (%) Inhibition BChE): 72.54 ± 0.6%; inhibition at 1000 µg/mL ([3]; read-out: (%) Inhibition BChE): 79 ± 1.03%; (%) Inhibition DPPH ([1]; 15.62 μg/mL): 13.70±1.60 %; (%) Inhibition DPPH ([1]; 31.25 μg/mL): 23.55 ± 1.85 %; (%) Inhibition DPPH ([1]; 62.5 μg/mL): 36.36 ± 0.91 %; (%) Inhibition DPPH ([1]; 125 μg/mL): 50.07 ± 0.97 %; (%) Inhibition DPPH ([1]; 250 μg/mL): 61.31 ± 1.97 %; (%) Inhibition DPPH ([1]; 500 μg/mL): 70.34 ±1.10 %; (%) Inhibition DPPH ([1]; 1000 μg/mL): 77.04 ± 1.61 %; IC50 [1]: 407 µM; (%) Inhibition ABTS ([2]; 15.62 μg/mL): 12.33±1.67 %; (%) Inhibition ABTS ([2]; 31.25 μg/mL): 22.83±1.21 %; (%) Inhibition ABTS ([2]; 62.5 μg/mL): 38.10±0.90 %; (%) Inhibition ABTS ([2]; 125 μg/mL): 49.31±0.58 %; (%) Inhibition ABTS ([2]; 250 μg/mL): 59.87±0.85 %; (%) Inhibition ABTS ([2]; 500 μg/mL): 68.51±0.54 %; (%) Inhibition ABTS ([2]; 1000 μg/mL): 75.76±0.61 %; IC50 [2]: 498 µM; IC50 [4]: 472 µM; inhibition at 15.62 µg/mL [4]: 28.8 ± 1.5%; inhibition at 31.25 µg/mL [4]: 34 ± 0.35%; inhibition at 62.5 µg/mL [4]: 41.9 ± 0.96%; inhibition at 125 µg/mL [4]: 47.8 ± 1.5%; inhibition at 250 µg/mL [4]: 55.8 ± 0.71%; inhibition at 500 µg/mL [4]: 65.08 ± 0.47%; inhibition at 1000 µg/mL [4]: 71.8 ± 1.24%; Vmax, acetylcholinesterase inhibition (acetylcholinesterase): 78.65 µg/min; Vmax, butyrylcholinesterase inhibition (butyrylcholinesterase): 2.867 µg/min; Vmax, α-glucosidase (α-glucosidase): 3.542 µg/min

Question: For `C[C@H]1O[C@H](O[C@H]2[C@H](O)[C@@H](O)[C@@H](O[C@H]3[C@H](O)[C@@H](O)C(O)O[C@@H]3CO)O[C@@H]2CO)[C@H](O)[C@@H](O)[C@@H]1N[C@H]1C=C(CO)[C@@H](O)[C@H](O)[C@H]1O` (stereo partly shown) [Acarbose (Std), acarbose, reference compound], which inhibition at 15.62 µg/mL [4] is on record?
Answer: 41.8 ± 0.37%

Question: What about the inhibition at 31.25 µg/mL [4] of the same compound?
Answer: 49.9 ± 0.48%

Question: And the inhibition at 62.5 µg/mL [4]?
Answer: 57.7 ± 0.88%

Question: What about the inhibition at 125 µg/mL [4] of the same compound?
Answer: 63.9 ± 1.27%

Question: What about the inhibition at 250 µg/mL [4] of the same compound?
Answer: 72 ± 2.01%

Question: And the inhibition at 500 µg/mL [4]?
Answer: 75.1 ± 1.04%

Question: And the inhibition at 1000 µg/mL [4]?
Answer: 83.6 ± 1.67%

Question: And the “Vmax, α-glucosidase” value (α-glucosidase)?
Answer: 2.639 µg/min and 2.616 µg/min

From paper PMC7285812 (Drug Design, Development and Therapy, 2020)
